{
  "source": "patent EP0399716A1",
  "about": "“Hypoallergenic steroidal anesthetic/hypnotic compositions” (INNOVET, INC., priority 1989, dated 1990)",
  "test_system": "horses",
  "assay": "Alfaxalone/HPCD anesthesia in the horse",
  "procedure": "In the first stage, two horses were anesthetized after heavy premedication with xylazine (0.6 mg/kg). […] Heart rate, respiratory rate, blood pressure, ECG and ventilation were monitored throughout the anesthesia period.\nThe same parameters as in the first stage were monitored.\nCardiopulmonary parameters were monitored as before.\nTo provide some comparison in the above stages, the two horses were anesthetized with thiamylal sodium (8 mg/kg) after the same premedication as before and a similar monitoring regime followed.\nA third horse was obtained and the same regimen was followed as in the third stage, but three \"top-ups\" of one-third induction dose were administered at 10 minute intervals. Similar monitoring as above was continued.\nBlood pressure was measured from an acutely placed antraarterial catheter and read through a transducer/digital readout system which included an ECG tracing oscilloscope.",
  "data": [
    {"smiles": "CC(=O)[C@H]1CC[C@H]2[C@@H]3CC[C@H]4C[C@H](O)CC[C@]4(C)[C@H]3C(=O)C[C@]12C", "note": "(stereo in doubt) [alfaxalone, 3α-hydroxy-5α-pregnane-11,20-dione]", "values": [
      {"measurement": "recoveries classified as excellent", "setting": "alfaxalone alone recoveries", "value": "Four of the five"}
    ]},
    {"smiles": "C=CCC1(C(C)CCC)C(=O)N=C(S)NC1=O", "note": "(stereo not drawn) [thiamylal, thiamylal sodium]", "values": [
      {"measurement": "blood pressure effect", "setting": "after xylazine premedication", "value": "the same effect"}
    ]},
    {"smiles": "Cc1cccc(C)c1N=C1NCCCS1", "note": "[xylazine]", "values": [
      {"measurement": "sedation", "setting": "0.6 mg/kg i.v.", "value": "good sedation without ataxia"}
    ]}
  ]
}
